Results on two molecules are retold here after patent US10905691B2, “Use of triazolo(4,5-d)pyrimidine derivatives for prevention and treatment of bacterial infection” (Universite de Liege, priority 2016, dated 2021).

Common to all, as to experiment: MBC and MDK99.9 determination (CFU counting)
Assay [1] relates to E. faecalis vancomycin-resistant (VRE) ATCC BAA-2365. It counts as cell-based, Enterococcus faecalis. To be noted: for MBC: Enterococcus faecalis, cut-off 99.9% reduction in CFU. The protocol:
(§1) Further experiments were conducted using different strains of E. faecalis, as clinically relevant Gram-positive bacterial strains: E. faecalis vancomycin-resistant (VRE) ATCC BAA-2365, and E. faecalis ATCC 29212 in order to determine the Minimal Inhibitory Concentration (MIC) which is the minimal concentration required to prevent bacterial growth; the Minimal Bactericidal Concentration (MBC) which determines the lowest concentration at which an antimicrobial agent kill a particular microorganism and a Minimum Duration for killing 99.9% bacteria (MDK99.9) which is a tolerance metric according to the EUCAST.
(§2) MBC and MDK99.9 determination: A single colony selected from the different strains of E. faecalis is resuspended and cultured in the appropriate medium (TSB, or BHI) overnight (O/N) in aerobic conditions (37° C. with 220 rpm shaking), next day a 1:100 inoculum in the appropriate medium was incubated in aerobic conditions for 2 h. The culture is then challenged with triafluocyl at MIC concentration or higher concentrations. Bacterial growth was measured after different time intervals by counting the colony-forming units after plating appropriate culture dilutions on BHI agar plates. […] And the real time needed is defined as the MDK99.9. MBC for Triafluocyl against E. faecalis vancomycin-resistant (VRE) ATCC BAA-2365 was 20 μg/ml. MDK99.9 for Triafluocyl against E. faecalis vancomycin-resistant (VRE) ATCC BAA-2365 was 24 hours.
(§3) For MBC determination a 1:100 inoculum of an O/N culture (prepared like before) was incubated in aerobic conditions for 2 h in bacteria-specific medium. The culture was then challenged with Fluometacyl at the MIC concentration or higher. Bacterial growth was measured after different time intervals by counting the colony-forming units (CFU) after plating appropriate culture dilutions on bacteria-specific medium agar plates.

Assay [2] concerns methilcillin-resistant S. aureus (MRSA) ATCC BAA-1556. It counts as cell-based, Staphylococcus aureus. To be noted: for MBC: Staphylococcus aureus, cut-off 99.9% reduction in CFU. As for the experimental part:
as §1, with “S. aureus,” for “E. faecalis,”, “strains:” for “strains: E. faecalis vancomycin-resistant (VRE)”, “25904,” for “BAA-2365, and E. faecalis”, “6538, methilcillin-resistant S. aureus (MRSA) ATCC BAA-1556, Glycopeptide intermediate-resistant (GISA) S. aureus Mu-50 (ATCC 700695)” for “29212”
as §2, with “S. aureus” for “E. faecalis”, “S. aureus” for “E. faecalis vancomycin-resistant (VRE)”, “25904, ATCC 6538, methilcillin-resistant S. aureus (MRSA) ATCC BAA-1556, Glycopeptide intermediate-resistant (GISA), and S. aureus Mu-50 (ATCC 700695) were” for “BAA-2365 was”, “μg/ml for each of them.” for “μg/ml.”, “25904, ATCC 6538, methilcillin-resistant S. aureus (MRSA) ATCC BAA-1556, Glycopeptide intermediate-resistant (GISA), and S. aureus Mu-50 (ATCC 700695) were 10, 6, 2, and 14 hours, respectively.” for “BAA-2365 was 24 hours.”
as §3

The test system of assay [3] is Glycopeptide intermediate-resistant (GISA) S. aureus Mu-50 (ATCC 700695). The assay is classed as cell-based, Staphylococcus aureus. To be noted: for MBC: Staphylococcus aureus, ATCC700695, cut-off 99.9% reduction in CFU. As for the experimental part:
as §1, with “S. aureus,” for “E. faecalis,”, “strains:” for “strains: E. faecalis vancomycin-resistant (VRE)”, “25904,” for “BAA-2365, and E. faecalis”, “6538, methilcillin-resistant S. aureus (MRSA) ATCC BAA-1556, Glycopeptide intermediate-resistant (GISA) S. aureus Mu-50 (ATCC 700695)” for “29212”
as §2, with “S. aureus” for “E. faecalis”, “S. aureus” for “E. faecalis vancomycin-resistant (VRE)”, “25904, ATCC 6538, methilcillin-resistant S. aureus (MRSA) ATCC BAA-1556, Glycopeptide intermediate-resistant (GISA), and S. aureus Mu-50 (ATCC 700695) were” for “BAA-2365 was”, “μg/ml for each of them.” for “μg/ml.”, “25904, ATCC 6538, methilcillin-resistant S. aureus (MRSA) ATCC BAA-1556, Glycopeptide intermediate-resistant (GISA), and S. aureus Mu-50 (ATCC 700695) were 10, 6, 2, and 14 hours, respectively.” for “BAA-2365 was 24 hours.”
as §3

Another assay deals with S. aureus ATCC 25904. It counts as cell-based, Staphylococcus aureus. To be noted: for MBC: Staphylococcus aureus, ATCC25904, cut-off 99.9% reduction in CFU. As for the experimental part: as §1, with “S. aureus,” for “E. faecalis,”, “strains:” for “strains: E. faecalis vancomycin-resistant (VRE)”, “25904,” for “BAA-2365, and E. faecalis”, “6538, methilcillin-resistant S. aureus (MRSA) ATCC BAA-1556, Glycopeptide intermediate-resistant (GISA) S. aureus Mu-50 (ATCC 700695)” for “29212”
as §2, with “S. aureus” for “E. faecalis”, “S. aureus” for “E. faecalis vancomycin-resistant (VRE)”, “25904, ATCC 6538, methilcillin-resistant S. aureus (MRSA) ATCC BAA-1556, Glycopeptide intermediate-resistant (GISA), and S. aureus Mu-50 (ATCC 700695) were” for “BAA-2365 was”, “μg/ml for each of them.” for “μg/ml.”, “25904, ATCC 6538, methilcillin-resistant S. aureus (MRSA) ATCC BAA-1556, Glycopeptide intermediate-resistant (GISA), and S. aureus Mu-50 (ATCC 700695) were 10, 6, 2, and 14 hours, respectively.” for “BAA-2365 was 24 hours.”
as §3

As a reminder, the MBC is the smallest concentration meeting the test's criterion for killing. Higher therefore signals less potent killing. With `CCCSc1nc(N[C@@H]2C[C@H]2c2ccc(F)c(F)c2)c2nnn([C@@H]3C[C@H](O)[C@@H](O)[C@H]3O)c2n1` [Fluometacyl, (1S,2R,3S,4R)-4-[7-[[(1R,2S)-2-(3,4-Difluorophenyl)cyclopropyl]amino]-5-(propylthio)-3H-1,2,3-triazolo[4,5-d]pyrimidin-3-yl]-1,2,3-cyclopentanetriol], the MBC (in assay [1]; in assay [2]; in assay [3] (S. aureus MU50 GISA); in the assay on S. aureus ATCC 25904) was 38 µM each time.
As to `CCCSc1nc(N[C@@H]2C[C@H]2c2ccc(F)c(F)c2)c2nnn([C@@H]3C[C@H](OCCO)[C@@H](O)[C@H]3O)c2n1` [Triafluocyl, (1S,2S,3R,5S)-3-[7-[(1R,2S)-2-(3,4-difluorophenyl)cyclopropylamino]-5-(propylthio)-3H-[1,2,3]-triazolo[4,5-d]pyrimidin-3-yl]-5-(2-hydroxyethoxy)-1,2-cyclopentanediol], the “MDK 99.9 Time (h) needed to kill 99.9% of the started inoculum” value in assay [1] worked out at 24 h; in assay [2], 2 h; in assay [3] (S. aureus Mu50 GISA) it was 14 h; in the assay on S. aureus ATCC 25904, 10 h. Also, the MBC (in assay [1]; in assay [2]; in assay [3] (S. aureus Mu50 GISA); against S. aureus ATCC 25904) was 20 µg/mL in each case.
